This is an account of results in patent US20240208992A1, “MACROCYCLES AS CFTR MODULATORS” (Idorsia Pharmaceuticals Ltd, priority 2021, published 2024).

In the experiment the target is human F508del-CFTR (Homo sapiens, UniProt P13569, DEL508-508). Put plainly: F508del-CFTR cell surface expression (corrector activity), DiscoveRx ß-galactosidase complementation chemiluminescence assay in recombinant U2OS cell line.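 For all read-outs here: U2OS cells co-expressing ProLink-tagged F508del-CFTR and a membrane-anchored enzyme acceptor, where more surface CFTR restores β-galactosidase activity measured by chemiluminescence.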 To be noted: for EC50: EC50, F508del-CFTR cell surface expression, U2OS cells, 16h compound incubation, geomean values; for Emax: U2OS, in relation to Emax of corrector lumacaftor (=100%), arithmetic mean values.
Chain of human F508del-CFTR (P13569 with tags, fused parts or gaps DEL508-508): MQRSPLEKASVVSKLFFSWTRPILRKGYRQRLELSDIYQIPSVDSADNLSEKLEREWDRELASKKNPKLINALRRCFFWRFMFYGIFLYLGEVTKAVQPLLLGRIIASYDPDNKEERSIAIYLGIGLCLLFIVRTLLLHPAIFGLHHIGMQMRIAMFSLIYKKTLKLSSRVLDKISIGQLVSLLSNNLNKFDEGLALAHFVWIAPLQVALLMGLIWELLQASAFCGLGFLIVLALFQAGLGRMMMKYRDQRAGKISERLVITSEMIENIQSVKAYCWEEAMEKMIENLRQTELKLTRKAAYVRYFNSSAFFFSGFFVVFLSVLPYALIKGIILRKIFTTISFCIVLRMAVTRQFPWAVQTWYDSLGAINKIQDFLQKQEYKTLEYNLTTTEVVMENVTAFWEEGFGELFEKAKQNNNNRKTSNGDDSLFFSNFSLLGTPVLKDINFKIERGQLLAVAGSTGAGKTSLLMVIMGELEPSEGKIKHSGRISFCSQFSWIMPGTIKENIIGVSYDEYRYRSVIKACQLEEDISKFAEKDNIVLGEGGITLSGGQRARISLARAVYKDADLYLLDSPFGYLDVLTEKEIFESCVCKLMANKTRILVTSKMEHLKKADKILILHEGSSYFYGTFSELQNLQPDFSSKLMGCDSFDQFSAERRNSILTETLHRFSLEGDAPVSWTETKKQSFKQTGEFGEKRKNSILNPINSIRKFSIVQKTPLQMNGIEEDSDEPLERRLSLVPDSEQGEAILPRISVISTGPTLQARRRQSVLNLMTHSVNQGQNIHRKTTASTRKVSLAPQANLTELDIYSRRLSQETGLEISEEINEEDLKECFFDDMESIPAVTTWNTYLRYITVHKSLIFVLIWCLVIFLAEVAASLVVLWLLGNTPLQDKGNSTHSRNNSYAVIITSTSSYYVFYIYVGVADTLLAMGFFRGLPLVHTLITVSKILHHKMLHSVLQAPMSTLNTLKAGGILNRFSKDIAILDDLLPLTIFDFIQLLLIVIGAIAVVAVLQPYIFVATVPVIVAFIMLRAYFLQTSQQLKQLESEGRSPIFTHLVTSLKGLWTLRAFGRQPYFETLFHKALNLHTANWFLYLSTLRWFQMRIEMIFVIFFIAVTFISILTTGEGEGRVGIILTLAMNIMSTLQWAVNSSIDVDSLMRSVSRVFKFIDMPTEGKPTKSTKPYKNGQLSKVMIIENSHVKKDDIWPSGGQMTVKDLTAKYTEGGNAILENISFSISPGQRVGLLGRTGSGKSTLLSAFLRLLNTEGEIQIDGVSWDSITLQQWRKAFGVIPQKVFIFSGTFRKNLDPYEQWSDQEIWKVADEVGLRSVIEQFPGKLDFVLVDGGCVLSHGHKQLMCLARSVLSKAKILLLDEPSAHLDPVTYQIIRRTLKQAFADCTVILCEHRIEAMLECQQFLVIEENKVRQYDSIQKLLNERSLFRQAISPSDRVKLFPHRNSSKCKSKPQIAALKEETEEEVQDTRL

The EC50 is the concentration that produces a half-maximal response. As a reminder, the Emax is the maximal effect, on the per cent scale that the assay sets. For the compound `CC(C)C[C@H]1C(=O)N2CCCC[C@@H]2C(=O)N[C@H](Cc2ccccc2)COc2ccc3ncc(F)cc3c2C(=O)N[C@H](C(=O)NCCc2cc(C3CC3)no2)CC(=O)N1C` [Example 655, (9S,13S,19aR,22R)-22-benzyl-N-(2-(3-cyclopropylisoxazol-5-yl)ethyl)-5-fluoro-13-isobutyl-12-methyl-7,11,14,20-tetraoxo-7,8,9,10,11,12,13,14,17,18,19,19a,20,21,22,23-hexadecahydro-16H-pyrido[2′,1′:6,7][1]oxa[4,7,10,14]tetraazacycloheptadecino[16,17-f]quinoline-9-carboxamide], the EC50 is 150 nM and the Emax is 318%.

On to `COc1nc(C)cc2c1C(=O)N[C@H](C(=O)NCCc1nc(C3CC3)no1)CC(=O)N(C)[C@@H](CC(C)C)C(=O)N1CCCC[C@@H]1C(=O)N[C@H](Cc1ccccc1)CO2` [Example 656, (7S,11S,17aR,20R)-20-benzyl-N-(2-(3-cyclopropyl-1,2,4-oxadiazol-5-yl)ethyl)-11-isobutyl-4-methoxy-2,10-dimethyl-5,9,12,18-tetraoxo-5,6,7,8,9,10,11,12,15,16,17,17a,18,19,20,21-hexadecahydro-14H-dipyrido[2,1-f:3′,4′-p][1]oxa[4,7,10,14]tetraazacycloheptadecine-7-carboxamide], for which the EC50 was 357 nM and the Emax was determined as 327%.

`[2H]C([2H])([2H])Oc1nc(C)cc2c1C(=O)N[C@H](C(=O)NCCc1nc(C3CC3)no1)CC(=O)N(C)[C@@H](CC(C)C)C(=O)N1CCCC[C@@H]1C(=O)N[C@H](Cc1ccccc1)CO2` [Example 657, (7S,11S,17aR,20R)-20-benzyl-N-(2-(3-cyclopropyl-1,2,4-oxadiazol-5-yl)ethyl)-11-isobutyl-4-(methoxy-d3)-2,10-dimethyl-5,9,12,18-tetraoxo-5,6,7,8,9,10,11,12,15,16,17,17a,18,19,20,21-hexadecahydro-14H-dipyrido[2,1-f:3′,4′-p][1]oxa[4,7,10,14]tetraazacycloheptadecine-7-carboxamide]: the EC50 came to 347 nM and the Emax was determined as 291%.

On to `COc1nc(C)cc2c1C(=O)N[C@H](C(=O)NCCc1cc(C3CC3)no1)CC(=O)N(C)[C@@H](CC(C)C)C(=O)N1CCCC[C@@H]1C(=O)N[C@H](Cc1ccccc1)CO2` [Example 658, (7S,11S,17aR,20R)-20-benzyl-N-(2-(3-cyclopropylisoxazol-5-yl)ethyl)-11-isobutyl-4-methoxy-2,10-dimethyl-5,9,12,18-tetraoxo-5,6,7,8,9,10,11,12,15,16,17,17a,18,19,20,21-hexadecahydro-14H-dipyrido[2,1-f:3′,4′-p][1]oxa[4,7,10,14]tetraazacycloheptadecine-7-carboxamide], for which the EC50 was 283 nM and the Emax turned out to be 300%.

Consider `[2H]C([2H])([2H])Oc1nc(C)cc2c1C(=O)N[C@H](C(=O)NCCc1cc(C3CC3)no1)CC(=O)N(C)[C@@H](CC(C)C)C(=O)N1CCCC[C@@H]1C(=O)N[C@H](Cc1ccccc1)CO2` [Example 659, (7S,11S,17aR,20R)-20-benzyl-N-(2-(3-cyclopropylisoxazol-5-yl)ethyl)-11-isobutyl-4-(methoxy-d3)-2,10-dimethyl-5,9,12,18-tetraoxo-5,6,7,8,9,10,11,12,15,16,17,17a,18,19,20,21-hexadecahydro-14H-dipyrido[2,1-f:3′,4′-p][1]oxa[4,7,10,14]tetraazacycloheptadecine-7-carboxamide], for which the EC50 is 359 nM and the Emax was found to be 325%.

Turning to `CC(C)C[C@H]1C(=O)N2CCCC[C@@H]2C(=O)N[C@H](Cc2ccccc2)COc2cnc3cccc(F)c3c2C(=O)N[C@H](C(=O)NCCc2cc(C3CC3)no2)CC(=O)N1C` [Example 660, (9S,13S,19aR,22R)-22-benzyl-N-(2-(3-cyclopropylisoxazol-5-yl)ethyl)-6-fluoro-13-isobutyl-12-methyl-7,11,14,20-tetraoxo-7,8,9,10,11,12,13,14,17,18,19,19a,20,21,22,23-hexadecahydro-16H-pyrido[2′,1′:6,7][1]oxa[4,7,10,14]tetraazacycloheptadecino[17,16-c]quinoline-9-carboxamide], the EC50 amounted to 91 nM and the Emax was 358%.

In the case of `COc1nccc2c1C(=O)N[C@H](C(=O)NCCc1cc(C3CC3)no1)CC(=O)N(C)[C@@H](CC(C)C)C(=O)N1CCC(F)(F)C[C@@H]1C(=O)N[C@H](Cc1ccccc1)CO2` [Example 663, (7S,11S,17aR,20R)-20-benzyl-N-(2-(3-cyclopropylisoxazol-5-yl)ethyl)-16,16-difluoro-11-isobutyl-4-methoxy-10-methyl-5,9,12,18-tetraoxo-5,6,7,8,9,10,11,12,15,16,17,17a,18,19,20,21-hexadecahydro-14H-dipyrido[2,1-f:3′,4′-p][1]oxa[4,7,10,14]tetraazacycloheptadecine-7-carboxamide], the EC50 turned out to be 801 nM and the Emax was determined as 210%.

On to `[2H]C([2H])([2H])Oc1nc(C)cc2c1C(=O)N[C@H](C(=O)NCCc1cc(C3CC3)on1)CC(=O)N(C)[C@@H](CC(C)C)C(=O)N1CCCC[C@@H]1C(=O)N[C@H](Cc1ccccc1)CO2` [Example 664, (7S,11S,17aR,20R)-20-benzyl-N-(2-(5-cyclopropylisoxazol-3-yl)ethyl)-11-isobutyl-4-(methoxy-d3)-2,10-dimethyl-5,9,12,18-tetraoxo-5,6,7,8,9,10,11,12,15,16,17,17a,18,19,20,21-hexadecahydro-14H-dipyrido[2,1-f:3′,4′-p][1]oxa[4,7,10,14]tetraazacycloheptadecine-7-carboxamide], for which the EC50 came out at 231 nM and the Emax was found to be 291%.

For the compound `CC(C)C[C@H]1C(=O)N2CCCC[C@@H]2C(=O)N[C@H](Cc2ccccc2)COc2cnc3ccc(F)cc3c2C(=O)N[C@H](C(=O)NCCc2cnn(C3CC3)n2)CC(=O)N1C` [Example 665, (9S,13S,19aR,22R)-22-benzyl-N-(2-(2-cyclopropyl-2H-1,2,3-triazol-4-yl)ethyl)-5-fluoro-13-isobutyl-12-methyl-7,11,14,20-tetraoxo-7,8,9,10,11,12,13,14,17,18,19,19a,20,21,22,23-hexadecahydro-16H-pyrido[2′,1′:6,7][1]oxa[4,7,10,14]tetraazacycloheptadecino[17,16-c]quinoline-9-carboxamide], the EC50 was 119 nM and the Emax stood at 323%.

For `[2H]C([2H])([2H])Oc1nc(C)cc2c1C(=O)N[C@H](C(=O)NCCc1noc(C3CC3)n1)CC(=O)N(C)[C@@H](CC(C)C)C(=O)N1CCCC[C@@H]1C(=O)N[C@H](Cc1ccccc1)CO2` [Example 666, (7S,11S,17aR,20R)-20-benzyl-N-(2-(5-cyclopropyl-1,2,4-oxadiazol-3-yl)ethyl)-11-isobutyl-4-(methoxy-d3)-2,10-dimethyl-5,9,12,18-tetraoxo-5,6,7,8,9,10,11,12,15,16,17,17a,18,19,20,21-hexadecahydro-14H-dipyrido[2,1-f:3′,4′-p][1]oxa[4,7,10,14]tetraazacycloheptadecine-7-carboxamide], the EC50 was determined as 484 nM and the Emax is 311%.

Turning to `COc1nc(C)cc2c1C(=O)N[C@H](C(=O)NCCc1cc(C(F)(F)F)no1)CC(=O)N(C)[C@@H](CC(C)C)C(=O)N1CCCC[C@H]1C(=O)N[C@H](Cc1ccccc1)CO2` [Example 667, (7S,11S,17aS,20R)-20-benzyl-11-isobutyl-4-methoxy-2,10-dimethyl-5,9,12,18-tetraoxo-N-(2-(3-(trifluoromethyl)isoxazol-5-yl)ethyl)-5,6,7,8,9,10,11,12,15,16,17,17a,18,19,20,21-hexadecahydro-14H-dipyrido[2,1-f:3′,4′-p][1]oxa[4,7,10,14]tetraazacycloheptadecine-7-carboxamide], the EC50 was found to be 764 nM and the Emax came out at 149%.

As for `COc1nccc2c1C(=O)N[C@H](C(=O)NCCc1cc(C3CC3)no1)CC(=O)N(C)[C@@H](CC(C)C)C(=O)N1CCC3(CC3)C[C@@H]1C(=O)N[C@H](Cc1ccccc1)CO2` [Example 668, (7′S,11′S,17a′R,20′R)-20′-benzyl-N-(2-(3-cyclopropylisoxazol-5-yl)ethyl)-11′-isobutyl-4′-methoxy-10′-methyl-5′,9′,12′,18′-tetraoxo-5′,6′,7′,8′,9′,10′,11′,12′,14′,15′,17′,17a′,18′,19′,20′,21′-hexadecahydrospiro[cyclopropane-1,16′-dipyrido[2,1-f:3′,4′-p][1]oxa[4,7,10,14]tetraazacycloheptadecine]-7′-carboxamide], the EC50 turned out to be 160 nM and the Emax stood at 330%.

As for `COc1nccc2c1C(=O)N[C@H](C(=O)NCCc1cc(C3CC3)no1)CC(=O)N(C)[C@@H](CC(C)C)C(=O)N1CC[C@H](c3ccccc3)C[C@H]1C(=O)N[C@H](Cc1ccccc1)CO2` [Example 670, (7S,11S,17aS,20R)-20-benzyl-N-(2-(3-cyclopropylisoxazol-5-yl)ethyl)-11-isobutyl-4-methoxy-10-methyl-5,9,12,18-tetraoxo-16-phenyl-5,6,7,8,9,10,11,12,15,16,17,17a,18,19,20,21-hexadecahydro-14H-dipyrido[2,1-f:3′,4′-p][1]oxa[4,7,10,14]tetraazacycloheptadecine-7-carboxamide], the EC50 came to 353 nM and the Emax was found to be 167%.

Consider `COc1nccc2c1C(=O)N[C@H](C(=O)NCCc1cc(C3CC3)no1)CC(=O)N(C)[C@@H](CC(C)C)C(=O)N1CC[C@@H](c3ccccc3)C[C@@H]1C(=O)N[C@H](Cc1ccccc1)CO2` [Example 672, (7S,11S,17aR,20R)-20-benzyl-N-(2-(3-cyclopropylisoxazol-5-yl)ethyl)-11-isobutyl-4-methoxy-10-methyl-5,9,12,18-tetraoxo-16-phenyl-5,6,7,8,9,10,11,12,15,16,17,17a,18,19,20,21-hexadecahydro-14H-dipyrido[2,1-f:3′,4′-p][1]oxa[4,7,10,14]tetraazacycloheptadecine-7-carboxamide], for which the EC50 was 103 nM and the Emax is 312%.
